In patent publication US6071944A, “Method of treatment of pigmented cancer cells utilizing photodynamic therapy” (Bowling Green State University, priority 1997, dated 2000):
“Also recorded” adds a separate entry of the source.

Key:
pigmented melanoma = settings: very virulent pigmented melanoma; cited from earlier work
Amelanotic melanoma = settings: cited from earlier work
B16 pigmented melanoma = assay: Photodynamic therapy and high peak power irradiation studies: tumour regrowth of B16 pigmented melanoma; format: in vivo, C57 mice
Procedure: Female C57/BL6 and BALB/C mice (18-20 g body weight) obtained from Harlan Spraque Dawley, Inc. (Indianapolis, Ind.) were used as experimental models. B16 pigmented melanoma (the B16 cell line was obtained from American Type Culture Collection) was subcutaneously transplanted into the upper flank by injecting […] of a sterile cell suspension in PBS. The cell line was cultured in Dulbecco's modified minimal essential medium supplemented with 10% fetal calf serum. The cell culture was maintained at 37° C. in a humidified atmosphere of 5% CO2 in air. All of our experiments were performed at 5-7 days after injection of B16 melanoma cells, when the tumor volume was in the range of 0.02-0.04 cm^3 with an external diameter of 0.4-0.6 cm and a depth of 0.15-0.2 cm.
When the tumor diameter was in the range of 0.4-0.6 cm, groups of 7-8 B16 melanoma bearing mice were irradiated with 1064 nm light from the Nd: YAG laser at 500 or 650 mJ per pulse (HPP). In one group of mice at 24 h after isoBO--SiNc injection (1 mg/kg) the tumor area was exposed to 774 nm light from a dye laser which was operated at a fluence rate of 300 mW/cm^2 for a total light fluence of 520 J/cm^2. This PDT treatment was performed, in other two groups, also before or after the tumors had been exposed to 1064 nm light from the Nd: YAG (650 mJ). Another group of 8 mice was treated with PDT (isoBO--SiNc 1 mg/kg, 300 mW/cm^2, 520 J/cm^2) preceded by HPP (1064 nm, 650 mJ) and retreated in the same way 10 days later, when the tumors were regrowing.
In a parallel set of experiments, a sequential treatment involving HPP and PDT (with the same irradiation conditions mentioned above) was followed by an immediate further irradiation at 550 mW/cm^2 and 200 j/cm^2 from the same 774 nm light. For each group the effectiveness of the treatment was evaluated by comparing the rate of tumor growth of the irradiated mice with that observed for control mice transplanted simultaneously with the phototreated mice but not exposed to light and not injected with isoBO--SiNc. The tumor size was measured daily by means of a caliper. Individual tumor volumes (V) were calculated by assuming a hemiellipsoidal structure for the tumor nodule and measuring the two perpendicular axes (a and b) and the height (c). Application of the relationship V 2/3(a/2×b/2×c) provided the tumor volume. The time to reach a defined tumor volume was calculated for the individual tumors.
Special attention was paid to the recoveries obtained at 24 h and 48 h after injection since these time intervals correspond with the maximum isoBO--SiNc accumulation in a variety of transplanted tumors and are generally used for PDT. The data obtained for control mice were in good agreement with those previously found in our laboratory. […] On the basis of the above described findings, a PDT experiment (776 nm; 300 mW/cm^2 -520 J/cm^2) was performed at 24 h post injection, immediately after HPP irradiation with a single 650 mJ pulse of 1064 nm light.
HPP: High Peak Power irradiation from Nd: YAG laser, 1064 nm, […] per
PDT: Photodynamic Therapy from dye laser, 774 nm, 300 mW/cm^2, 520
PTT: Photothermal Therapy from dye laser, 774 nm, 550 mW/cm^2, 200
*Difference between the growth time for treated and control mice. The
growth time is the time interval for the tumour to grow to a volume of 1
cm^3 from the size at the time of irradiation (0.03-0.04 cm^3).
The growth time of control mice was 11 days.

[1] = design: species or system C57 mice; settings: mouse, in vivo, iv, 1 mg/kg, 3 h
Procedure: (§1) SiNc incorporated into DPPC liposomes was injected at a dose of 1 mg/kg body weight into the caudal vein of C57 mice bearing the B16 pigmented melanoma. Three groups of mice (three mice per each time point) were used: (a) unirradiated control mice; (b) mice injected immediately after irradiation with the Nd: YAG laser (1064 nm, one pulse, 650 mJ); (c) mice injected at 24 h or 48 h before irradiation under the same conditions indicated for group (b). In all cases, at 3, 24 and 48 h after injection of isoBO--SiNc (groups a and b) and immediately after irradiation (group c), the mice were sacrificed by prolonged exposure to ether vapor. The blood was rapidly taken, centrifuged at 3000 rpm for 10 min. to remove the erythrocytes, and the serum was analyzed for its isoBO--SiNc content by a spectrophotofluorimetric procedure (4) using 690 nm as the excitation wavelength. The liver, tumor and peritumoral skin (namely an area with a 0.5 cm width surrounding the tumor) were excised and their isoBO--SiNc content was determined spectrophotofluorimetrically as previously described (4,5).
The pharmacokinetic behavior of systematically injected isoBO--SiNc in unirradiated and 1064 nm-irradiated (650 mJ, one pulse) C57 mice is shown in Table 1.
C = control mice (mice not irradiated) […]
Values ± SD; three mice were independently analyzed each time, with th
exception of I where six mice were analyzed.

[2] = Effect of 1064 nm light on the photosensitizer (recovery, group II); format: in vivo, C57 mice; settings: injected 24 and 48 h before irradiation
Procedure: as §1
II = mice injected at 24 and 48 h before irradiation (1064 nm, 650 mJ, 1
Special attention was paid to the recoveries obtained at 24 h and 48 h after injection since these time intervals correspond with the maximum isoBO--SiNc accumulation in a variety of transplanted tumors and are generally used for PDT. […]

Compound: Photofrin
- response of pigmented melanoma to PDT (pigmented melanoma): poorly responsive
- response of amelanotic melanoma to Photofrin-PDT (Amelanotic melanoma): successfully treated

Compound: CCCCCCCCCCCCCCCCCC[Si]([O-])(CC(C)C)CC(C)C.CCCCCCCCCCCCCCCCCC[Si]([O-])(CC(C)C)CC(C)C.[Si+4].c1ccc2cc3c(cc2c1)-c1nc2nc(nc4[n-]c(nc5[n-]c(nc-3n1)c1cc3ccccc3cc51)c1cc3ccccc3cc41)-c1cc3ccccc3cc1-2 [isoBO-SiNc, Bis(di-isobutyloctadecylsiloxy)-2,3-naphthalocyanato silicon]
- delay of tumor regrowth (B16 pigmented melanoma; 1 mg/kg, PDT 300 mW/cm^2, 520 J/cm^2, 776 nm diode laser immediately after 1064 nm irradiation): 11 days
- Mice tumour free time (B16 pigmented melanoma; HPP + PDT): 9 days
- Mice tumour free time (B16 pigmented melanoma; HPP + PDT + HPP + PDT (retreated 10 days later)): 21 days
- Regrowth delay (B16 pigmented melanoma; HPP + PDT + HPP + PDT (retreated 10 days later), growth time to 1 cm^3 vs control mice): 27 days
- Mice tumour free time (B16 pigmented melanoma; HPP + PDT + PTT (774 nm, 550 mW/cm^2, 200 J/cm^2)): 22 days
- Regrowth delay (B16 pigmented melanoma; HPP + PDT + PTT, growth time to 1 cm^3 vs control mice): 34.6 days
- Regrowth delay (B16 pigmented melanoma; HPP + PDT, growth time to 1 cm^3 vs control mice): 16.4 days
- tumor response to combined HPP and PDT (B16 pigmented melanoma; HPP irradiation followed by PDT): remarkable retardation in tumor growth rate; also recorded: significant tumor response which is markedly larger than that obtained with either treatment alone
- Mice tumour free time (B16 pigmented melanoma; PDT (774 nm, 300 mW/cm^2, 520 J/cm^2), 1 mg/kg): 2 days
- animals essentially tumor-free post-PDT (B16 pigmented melanoma; PDT (776 nm; 300 mW/cm^2, 520 J/cm^2) 24 h post injection, immediately after HPP 650 mJ pulse, FIG. 3): ~11 days
- Mice tumour free time (B16 pigmented melanoma; PDT + HPP (1064 nm Nd:YAG, 650 mJ per pulse)): 2 days
- Regrowth delay (B16 pigmented melanoma; PDT + HPP, growth time to 1 cm^3 vs control mice): 7 days
- delay of tumor regrowth (B16 pigmented melanoma; PDT under identical conditions without the pre-irradiation): 4 days
- Regrowth delay (B16 pigmented melanoma; PDT, difference in growth time to 1 cm^3 between treated and control mice): 6.3 days
- Recovery of isoBO-SiNc from selected tissues: peritumoural skin [1]: 0.44 ± 0.1 μg of drug per g
- effect of 1064 nm irradiation on recovery / integrity of the photosensitizer [2]: no appreciable effect on the recovery; also recorded: not affected by 1064 nm light
